# Reference: patent US20250230165A1, “HETEROCYCLIC COMPOUNDS FOR USE IN THE TREATMENT OF CANCER” (ARTIOS PHARMA LIMITED, priority 2021, published 2025)
# Biological target: T1, Human Polθ polymerase domain (aa1820-2590) (Homo sapiens, UniProt O75417)
# T1 construct: Human Polθ polymerase domain (aa1820-2590) was expressed in E. coli; made in house; host or cells: E. coli
# T1 sequence (O75417 1820-2590): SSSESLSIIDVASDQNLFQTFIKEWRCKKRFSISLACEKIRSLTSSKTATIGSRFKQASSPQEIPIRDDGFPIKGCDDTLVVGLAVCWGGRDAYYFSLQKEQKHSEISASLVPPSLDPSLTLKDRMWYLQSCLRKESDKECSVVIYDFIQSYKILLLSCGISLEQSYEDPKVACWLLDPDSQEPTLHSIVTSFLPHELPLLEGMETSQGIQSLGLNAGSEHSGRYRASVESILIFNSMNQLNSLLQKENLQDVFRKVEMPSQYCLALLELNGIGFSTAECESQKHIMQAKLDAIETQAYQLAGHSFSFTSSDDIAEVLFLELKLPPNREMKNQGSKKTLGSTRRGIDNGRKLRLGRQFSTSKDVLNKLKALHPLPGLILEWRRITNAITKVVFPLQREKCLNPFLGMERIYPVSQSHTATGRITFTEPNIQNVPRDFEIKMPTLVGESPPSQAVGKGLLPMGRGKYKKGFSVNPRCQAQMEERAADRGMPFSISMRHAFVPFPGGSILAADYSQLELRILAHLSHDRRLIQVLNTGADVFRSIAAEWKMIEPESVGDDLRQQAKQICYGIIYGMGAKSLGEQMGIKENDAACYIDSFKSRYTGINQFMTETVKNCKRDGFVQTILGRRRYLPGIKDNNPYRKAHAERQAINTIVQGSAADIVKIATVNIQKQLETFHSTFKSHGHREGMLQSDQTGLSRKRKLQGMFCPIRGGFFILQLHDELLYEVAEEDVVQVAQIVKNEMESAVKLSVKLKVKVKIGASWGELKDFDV
# Experiment: Polθ Polymerase Domain Kinact/KI Assay (PicoGreen)
# Assay type: biochemical
# Conditions: 0.8 nM Polθ, 100 nM DNA substrate, kobs vs [I] fit for 2-step covalent inhibitor
# In short: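 Covalent Kinact/KI by PicoGreen DNA synthesis readout: E. coli-expressed Polθ polymerase domain (0.8 nM), 100 nM annealed DNA substrate, […], Tris pH 7.5 buffer with DTT, 1% DMSO; EDTA-stopped over 0–60 min time course. kobs from progress curves, then kobs vs [I] fit to two-step covalent model.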
row,Kinact/Kl,Compound
1,230000 M⁻¹ s⁻¹,"C=CC(=O)N1CC(N2CC[C@@H](CN3C[C@H]4CC(=O)N(c5cc(C(F)(F)F)cc(C)n5)[C@@H]4C(=O)N(C)c4cccc(Cl)c43)[C@H](C#N)C2)C1 (single isomer, unassigned) [Example 226a]"
2,870000 M⁻¹ s⁻¹,"C=CC(=O)N1CC(N2CC[C@H](CN3C[C@H]4CC(=O)N(c5cc(C(F)(F)F)cc(C)n5)[C@@H]4C(=O)N(C)c4cccc(Cl)c43)[C@@H](C#N)C2)C1 (single isomer, unassigned) [Example 226b]"
3,230000 M⁻¹ s⁻¹,"C=CC(=O)N1CC(N2CC[C@H](CN3C[C@H]4CC(=O)N(c5cc(C(F)(F)F)cc(C)n5)[C@@H]4C(=O)N(C)c4cccc(Cl)c43)[C@H](C#N)C2)C1 (single isomer, unassigned) [Example 227a]"
4,1.07e+06 M⁻¹ s⁻¹,"C=CC(=O)N1CC(N2CC[C@@H](CN3C[C@H]4CC(=O)N(c5cc(C(F)(F)F)cc(C)n5)[C@@H]4C(=O)N(C)c4cccc(Cl)c43)[C@@H](C#N)C2)C1 (single isomer, unassigned) [Example 227b]"
5,1.01e+06 M⁻¹ s⁻¹,"C=CC(=O)N1Cc2cc(CN3C[C@H]4CC(=O)N(c5cc(C(F)(F)F)cc(C)n5)[C@@H]4C(=O)N(C)c4cccc(Cl)c43)cnc2C1CO (single isomer, unassigned) [Example 230]"
6,1.89e+06 M⁻¹ s⁻¹,"C=CC(=O)N1Cc2cc(CN3C[C@H]4CC(=O)N(c5cc(C(F)(F)F)cc(C)n5)[C@@H]4C(=O)N(C)c4cccc(C)c43)cnc2C1CO (single isomer, unassigned) [Example 232]"
7,270000 M⁻¹ s⁻¹,"C=CC(=O)N1Cc2cc(CN3C[C@H]4CC(=O)N(c5cc(C(F)(F)F)cc(C)n5)[C@@H]4C(=O)N(C)c4cccc(C)c43)cnc2C1COC (single isomer, unassigned) [Example 235]"
8,270000 M⁻¹ s⁻¹,"C=CC(=O)N1Cc2cc(CN3C[C@H]4CC(=O)N(c5cc(C(F)(F)F)cc(C)n5)[C@@H]4C(=O)N(C)c4cccc(Cl)c43)cnc2C1COC (single isomer, unassigned) [Example 237]"
9,1.19e+06 M⁻¹ s⁻¹,"C=CC(=O)N1Cc2cc(CN3C[C@H]4CC(=O)N(c5cc(C(F)(F)F)cc(C)n5)[C@@H]4C(=O)N(C)c4cccc(Cl)c43)ccc2C1CC#N (single isomer, unassigned) [Example 287b]"
10,630000 M⁻¹ s⁻¹,"C=CC(=O)N1Cc2ccc(CN3C[C@H]4CC(=O)N(c5cc(C(F)(F)F)cc(C)n5)[C@@H]4C(=O)N(C)c4cccc(Cl)c43)cc2C1CC#N (single isomer, unassigned) [Example 288a]"
11,1.26e+06 M⁻¹ s⁻¹,"C=CC(=O)N1Cc2ccc(CN3C[C@H]4CC(=O)N(c5cc(C(F)(F)F)cc(C)n5)[C@@H]4C(=O)N(C)c4cccc(Cl)c43)nc2C1CC#N (single isomer, unassigned) [Example 289a]"
12,1.3e+06 M⁻¹ s⁻¹,"C=CC(=O)N1Cc2nc(CN3C[C@H]4CC(=O)N(c5cc(C(F)(F)F)cc(C)n5)[C@@H]4C(=O)N(C)c4cccc(Cl)c43)ccc2C1CC#N (single isomer, unassigned) [Example 290b]"
13,1.17e+06 M⁻¹ s⁻¹,"C=CC(=O)N1Cc2ncc(CN3C[C@H]4CC(=O)N(c5cc(C(F)(F)F)cc(C)n5)[C@@H]4C(=O)N(C)c4cccc(Cl)c43)cc2C1CC#N (single isomer, unassigned) [Example 291a]"
14,2.52e+06 M⁻¹ s⁻¹,"C=CC(=O)N1Cc2cc(CN3C[C@H]4CC(=O)N(c5cc(C(F)(F)F)cc(C)n5)[C@@H]4C(=O)N(C)c4cccc(Cl)c43)cnc2C1CC#N (single isomer, unassigned) [Example 292b]"
15,1.28e+06 M⁻¹ s⁻¹,"C=CC(=O)N1Cc2nc(CN3C[C@H]4CC(=O)N(c5cc(C(F)(F)F)cc(C)n5)[C@@H]4C(=O)N(C)c4cccc(Cl)c43)cn2CC1C(F)(F)F (single isomer, unassigned) [Example 293b]"
16,1.61e+06 M⁻¹ s⁻¹,"C=CC(=O)N1Cc2cc(CN3C[C@H]4CC(=O)N(c5cc(C(F)(F)F)cc(C)n5)[C@@H]4C(=O)N(C)c4cccc(Cl)c43)nn2CC1C (single isomer, unassigned) [Example 294a]"
17,1.46e+06 M⁻¹ s⁻¹,"Cc1cc(C(F)(F)F)cc(N2C(=O)C[C@@H]3CN(Cc4ccc5c(c4)CN(C(=O)/C=C/CN(C)C)C5CC#N)c4c(Cl)cccc4N(C)C(=O)[C@H]32)n1 (single isomer, unassigned) [Example 310b]"
18,1.12e+06 M⁻¹ s⁻¹,"Cc1cc(C(F)(F)F)cc(N2C(=O)C[C@@H]3CN(Cc4ccc5c(c4)C(CC#N)N(C(=O)/C=C/CN(C)C)C5)c4c(Cl)cccc4N(C)C(=O)[C@H]32)n1 (single isomer, unassigned) [Example 311a]"
19,1.25e+06 M⁻¹ s⁻¹,"C=CC(=O)N1C[C@H](F)[C@@H](n2cc(CN3C[C@H]4CC(=O)N(c5cc(C(F)(F)F)cc(C)n5)[C@@H]4C(=O)N(C)c4cccc(C)c43)cn2)C1 (single isomer, unassigned) [Example 325a]"
20,870000 M⁻¹ s⁻¹,"C=CC(=O)N1C[C@@H](F)[C@H](n2cc(CN3C[C@H]4CC(=O)N(c5cc(C(F)(F)F)cc(C)n5)[C@@H]4C(=O)N(C)c4cccc(C)c43)cn2)C1 (single isomer, unassigned) [Example 325b]"
21,980000 M⁻¹ s⁻¹,"C=CC(=O)N1C[C@@H](n2cc(CN3C[C@H]4CC(=O)N(c5cc(C(F)(F)F)cc(C)n5)[C@@H]4C(=O)N(C)c4cccc(C)c43)cn2)[C@@H](F)C1 (single isomer, unassigned) [Example 325c]"
22,1.77e+06 M⁻¹ s⁻¹,"C=CC(=O)N1C[C@@H](F)[C@@H](n2cc(CN3C[C@H]4CC(=O)N(c5cc(C(F)(F)F)cc(C)n5)[C@@H]4C(=O)N(C)c4cccc(C)c43)cn2)C1 (single isomer, unassigned) [Example 325d]"
23,450000 M⁻¹ s⁻¹,"C=CC(=O)N1C[C@@H](F)[C@@H](n2cnc(CN3C[C@H]4CC(=O)N(c5cc(C(F)(F)F)cc(C)n5)[C@@H]4C(=O)N(C)c4cccc(C)c43)c2)C1 (single isomer, unassigned) [Example 326a]"
24,1.52e+06 M⁻¹ s⁻¹,"C=CC(=O)N1C[C@@H](n2cnc(CN3C[C@H]4CC(=O)N(c5cc(C(F)(F)F)cc(C)n5)[C@@H]4C(=O)N(C)c4cccc(C)c43)c2)[C@@H](F)C1 (single isomer, unassigned) [Example 326b]"
25,410000 M⁻¹ s⁻¹,"C=CC(=O)N1CC(N2CCN(CCN3C[C@H]4CC(=O)N(c5cc(C(F)(F)F)cc(C)n5)[C@@H]4C(=O)N(C)c4cccc(F)c43)CC2)C1 [Example 1, (3aR,11aS)-5-(2-(4-(1-Acryloylazetidin-3-yl)piperazin-1-yl)ethyl)-6-fluoro-10-methyl-1-(6-methyl-4-(trifluoromethyl)pyridin-2-yl)-1,3a,4,5,10,11a-hexahydro-2H-benzo[b]pyrrolo[2,3-f][1,4]diazocine-2,11(3H)-dione]"
26,540000 M⁻¹ s⁻¹,"C=CC(=O)N1CC(N2CCCN(CCN3C[C@H]4CC(=O)N(c5cc(C(F)(F)F)cc(C)n5)[C@@H]4C(=O)N(C)c4cccc(F)c43)CC2)C1 [Example 3, (3aR,11aS)-5-(2-(4-(1-Acryloylazetidin-3-yl)-1,4-diazepan-1-yl)ethyl)-6-fluoro-10-methyl-1-(6-methyl-4-(trifluoromethyl)pyridin-2-yl)-1,3a,4,5,10,11a-hexahydro-2H-benzo[b]pyrrolo[2,3-f][1,4]diazocine-2,11(3H)-dione]"
27,750000 M⁻¹ s⁻¹,"C=CC(=O)N1CC2(CN(CCN3C[C@H]4CC(=O)N(c5cc(C(F)(F)F)cc(C)n5)[C@@H]4C(=O)N(C)c4cccc(F)c43)CCO2)C1 [Example 4, (3aR,11aS)-5-(2-(2-acryloyl-5-oxa-2,8-diazaspiro[3.5]nonan-8-yl)ethyl)-6-fluoro-10-methyl-1-(6-methyl-4-(trifluoromethyl)pyridin-2-yl)-1,3a,4,5,10,11a-hexahydro-2H-benzo[b]pyrrolo[2,3-f][1,4]diazocine-2,11(3H)-dione]"

row,Compound,Kinact/Kl
1,"C=CC(=O)N1CC2(CN(CCN3C[C@H]4CC(=O)N(c5cc(C(F)(F)F)cc(C)n5)[C@@H]4C(=O)N(C)c4cccc(F)c43)C[C@H]3CCCN32)C1 [Example 2, (3aR,11aS)-5-(2-((R)-1-Acryloyltetrahydro-1′H-spiro[azetidine-3,4′-pyrrolo[1,2-a]pyrazin]-2′(3′H)-yl)ethyl)-6-fluoro-10-methyl-1-(6-methyl-4-(trifluoromethyl)pyridin-2-yl)-1,3a,4,5,10,11a-hexahydro-2H-benzo[b]pyrrolo[2,3-f][1,4]diazocine-2,11(3H)-dione]",670000 M⁻¹ s⁻¹
